US20240199635A1, “TETRAHYDROTHIENO PYRIDINE DERIVATIVES AS DDRS INHIBITORS” (CHIESI FARMACEUTICI S.P.A., priority 2021, published 2024)
Where two headings read alike, the source gives them in different places.

Key:
[1] = target: T1, DDR1 (Homo sapiens (Human), UniProt Q08345); assay: DDR1 cell based assay (PathHunter U2OS DDR1 assay); conditions: U2OS-DDR1 cells, Type II Collagen stimulation, potency class
Method: The inhibition of DDR1 receptor activation by compounds was evaluated by PathHunter® U2OS DDR1 assay (Eurofins DiscoverX), according to the manufacturer's instructions. Briefly, U2OS-DDR1 cells were seeded in white 384-well plates at a density of 5000 cells/well and incubated for 2 hours at 37° C. and 5% CO2. Cells were then treated with compounds at different concentrations and incubated for 30 minutes, before stimulation with bovine Type II Collagen 20 μg/ml and incubation overnight at 37° C. and 5% CO2. PathHunter Detection Reagents were prepared according to the protocol provided by DiscoverX and 20 μl/well of this mix were added to each well. After incubating the plates for 1 hour at room temperature in the dark, luminescence signal was acquired with a plate reader. Raw data were normalized to vehicle control (0% for normalization) and positive control (100% for normalization; cells treated with 20 μg/ml collagen II) and IC50 parameters were calculated in GraphPad Prism 8.0 software, using sigmoidal dose-response curve fitting with variable slope.

[2] = target: T1, DDR1; assay: DDR1 binding assay (LanthaScreen Europium Kinase Binding assay)
Method: (§1) DDR1 and DDR2 binding assays were performed using Life Technologies LanthaScreen™ Europium Kinase Binding assay. The compounds were incubated with 5 nM DDR1 (Carna Biosciences) or 5 nM DDR2 (Life Technologies) for 1 hour at room temperature in white 384-well OptiPlate (PerkinElmer), containing 20 nM or 10 nM Kinase Tracer 178 respectively and 2 nM Europium labelled anti-GST antibody (Life Technologies) in assay buffer (50 mM HEPES pH 7.5, 10 mM MgCl2, 1 mM EGTA and 0.01% BRIJ35).
(§2) The ratio of fluorescence emission 665 nm/615 nm after excitation at 340 nm was obtained using the Tecan Spark 20M plate reader. IC50 values were determined in GraphPad Prism 7.0 software, using 4 parameter model: log(inhibitor) vs. response. IC50 values were converted in Ki using the Cheng-Prusoff equation (Ki=IC50/(1+[Tracer]/Kd).

[3] = target: DDR2 (Homo sapiens (Human), UniProt Q16832); assay: DDR2 binding assay (LanthaScreen Europium Kinase Binding assay)
Method: as §1, §2

[4] = potency class, read-out: Ki DDR1
[5] = potency class, read-out: Ki DDR2

DDR2, sequence (Q16832 22-855): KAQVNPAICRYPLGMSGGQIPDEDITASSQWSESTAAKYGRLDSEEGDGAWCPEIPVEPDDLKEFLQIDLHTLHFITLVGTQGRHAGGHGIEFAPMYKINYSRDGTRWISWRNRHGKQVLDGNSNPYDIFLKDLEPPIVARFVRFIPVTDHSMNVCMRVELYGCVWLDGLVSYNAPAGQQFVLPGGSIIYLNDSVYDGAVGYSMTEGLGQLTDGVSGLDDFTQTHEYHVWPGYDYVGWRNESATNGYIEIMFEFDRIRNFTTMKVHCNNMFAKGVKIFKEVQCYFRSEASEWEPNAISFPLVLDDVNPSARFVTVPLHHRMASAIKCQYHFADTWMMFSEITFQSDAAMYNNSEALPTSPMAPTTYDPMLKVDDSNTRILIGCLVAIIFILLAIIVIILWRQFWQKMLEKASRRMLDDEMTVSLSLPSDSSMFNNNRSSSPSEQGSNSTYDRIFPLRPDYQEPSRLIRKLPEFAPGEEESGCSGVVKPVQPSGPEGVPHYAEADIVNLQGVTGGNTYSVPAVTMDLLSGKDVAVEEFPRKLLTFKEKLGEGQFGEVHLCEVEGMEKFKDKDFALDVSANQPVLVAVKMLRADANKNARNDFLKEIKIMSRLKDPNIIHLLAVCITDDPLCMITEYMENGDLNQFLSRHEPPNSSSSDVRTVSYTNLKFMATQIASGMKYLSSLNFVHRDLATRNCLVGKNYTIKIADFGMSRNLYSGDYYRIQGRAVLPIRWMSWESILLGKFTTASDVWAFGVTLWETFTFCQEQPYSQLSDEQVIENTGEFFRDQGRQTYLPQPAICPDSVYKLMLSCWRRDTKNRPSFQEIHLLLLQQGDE
T1 sequence (Q08345 19-913): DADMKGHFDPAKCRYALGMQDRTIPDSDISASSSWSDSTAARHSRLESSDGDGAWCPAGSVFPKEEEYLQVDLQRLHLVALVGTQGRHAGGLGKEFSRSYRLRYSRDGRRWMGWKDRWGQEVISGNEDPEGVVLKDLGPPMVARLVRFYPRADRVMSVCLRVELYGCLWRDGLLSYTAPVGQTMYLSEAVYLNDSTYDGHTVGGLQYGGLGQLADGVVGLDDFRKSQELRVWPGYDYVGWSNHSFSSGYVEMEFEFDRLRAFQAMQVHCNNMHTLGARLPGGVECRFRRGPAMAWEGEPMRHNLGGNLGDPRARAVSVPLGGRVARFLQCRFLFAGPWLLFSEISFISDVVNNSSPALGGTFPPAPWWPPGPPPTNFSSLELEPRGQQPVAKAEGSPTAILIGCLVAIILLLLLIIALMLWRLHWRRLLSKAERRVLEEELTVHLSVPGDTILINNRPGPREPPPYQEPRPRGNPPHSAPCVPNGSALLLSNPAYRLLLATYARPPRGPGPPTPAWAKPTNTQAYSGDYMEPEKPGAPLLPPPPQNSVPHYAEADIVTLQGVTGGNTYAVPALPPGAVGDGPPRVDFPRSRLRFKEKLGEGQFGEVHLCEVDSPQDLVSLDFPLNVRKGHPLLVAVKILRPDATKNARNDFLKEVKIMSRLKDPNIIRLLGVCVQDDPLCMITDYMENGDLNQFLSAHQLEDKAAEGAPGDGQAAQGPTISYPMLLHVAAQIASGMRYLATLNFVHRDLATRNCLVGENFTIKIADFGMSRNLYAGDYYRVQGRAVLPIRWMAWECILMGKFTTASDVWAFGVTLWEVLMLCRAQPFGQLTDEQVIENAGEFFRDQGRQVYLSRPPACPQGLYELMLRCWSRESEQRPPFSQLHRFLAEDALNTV

Nc1ncc(CN2CCc3c(C(=O)Nc4ccc(Cl)c(C(F)(F)F)c4)csc3C2)cn1 [Example 61, 6-((2-aminopyrimidin-5-yl)methyl)-N-(4-chloro-3-(trifluoromethyl)phenyl)-4,5,6,7-tetrahydrothieno[2,3-c]pyridine-3-carboxamide] was tested, and the IC50 [1] was < 25 nM, the Ki [2, 4] was < 25 nM and the Ki [3, 5] was < 25 nM.
CNc1ncc(CN2CCc3c(C(=O)Nc4cc(F)cc(C(F)(F)F)c4)csc3C2)cn1 [Example 40, N-(3-fluoro-5-(trifluoromethyl)phenyl)-6-((2-(methylamino)pyrimidin-5-yl)methyl)-4,5,6,7-tetrahydrothieno[2,3-c]pyridine-3-carboxamide] was tested, and the IC50 [1] was < 25 nM, the Ki [2, 4] was < 25 nM and the Ki [3, 5] was < 25 nM.
For CC(C)(c1cc(NC(=O)c2csc3c2CCN(Cc2cnc(N)nc2)C3)no1)C(F)(F)F [Example 62, 6-((2-aminopyrimidin-5-yl)methyl)-N-(5-(1,1,1-trifluoro-2-methylpropan-2-yl)isoxazol-3-yl)-4,5,6,7-tetrahydrothieno[2,3-c]pyridine-3-carboxamide], the IC50 [1] was < 25 nM, the Ki [2, 4] was < 25 nM and the Ki [3, 5] was < 25 nM.
For O=C(Nc1cccc(OC(F)F)c1)c1csc2c1CCN(Cc1cncnc1)C2 [Example 13, N-(3-(difluoromethoxy)phenyl)-6-(pyrimidin-5-ylmethyl)-4,5,6,7-tetrahydrothieno[2,3-c]pyridine-3-carboxamide], the IC50 [1] was 50 to 80 nM, the Ki [2, 4] was < 25 nM and the Ki [3, 5] was < 25 nM.
For O=C(Nc1cc(F)cc(C(F)(F)F)c1)c1csc2c1CCN(Cc1cnc(NCCO)nc1)C2 [Example 44, N-(3-fluoro-5-(trifluoromethyl)phenyl)-6-((2-((2-hydroxyethyl)amino)pyrimidin-5-yl)methyl)-4,5,6,7-tetrahydrothieno[2,3-c]pyridine-3-carboxamide], the IC50 [1] was 25 to 50 nM, the Ki [2, 4] was < 25 nM and the Ki [3, 5] was < 25 nM.
For Nc1ncccc1CN1CCc2c(C(=O)Nc3cc(F)cc(C(F)(F)F)c3)csc2C1 [Example 43, 6-((2-aminopyridin-3-yl)methyl)-N-(3-fluoro-5-(trifluoromethyl)phenyl)-4,5,6,7-tetrahydrothieno[2,3-c]pyridine-3-carboxamide], the IC50 [1] was < 25 nM, the Ki [2, 4] was < 25 nM and the Ki [3, 5] was < 25 nM.
CN1CCN(Cc2cc(NC(=O)c3csc4c3CCN(c3cncnc3)C4)cc(C(F)(F)F)c2)CC1 [Example C1, N-(3-((4-methylpiperazin-1-yl)methyl)-5-(trifluoromethyl)phenyl)-6-(pyrimidin-5-yl)-4,5,6,7-tetrahydrothieno[2,3-c]pyridine-3-carboxamide] gave a Ki ([2]; read-out: DDR1 Ki) of 238 nM and a Ki ([3]; read-out: DDR2 Ki) of 172 nM.
In the case of O=C(Nc1cccc(C(F)(F)F)c1)c1csc2c1CCN(Cc1cccnc1)C2 [Example 25, 6-(pyridin-3-ylmethyl)-N-(3-(trifluoromethyl)phenyl)-4,5,6,7-tetrahydrothieno[2,3-c]pyridine-3-carboxamide], the IC50 [1] is reported as 25 to 50 nM, the Ki [2, 4] is reported as < 25 nM and the Ki [3, 5] is reported as < 25 nM.
In the case of O=C(Nc1cc(C(F)(F)F)ccc1F)c1csc2c1CCN(Cc1cncnc1)C2 [Example 11, N-(2-fluoro-5-(trifluoromethyl)phenyl)-6-(pyrimidin-5-ylmethyl)-4,5,6,7-tetrahydrothieno[2,3-c]pyridine-3-carboxamide], the IC50 [1] is reported as 50 to 80 nM, the Ki [2, 4] is reported as < 25 nM and the Ki [3, 5] is reported as < 25 nM.
In the case of COc1cncc(CN2CCc3c(C(=O)Nc4cc(C(C)(C)C)no4)csc3C2)c1 [Example 65, N-(3-(tert-butyl)isoxazol-5-yl)-6-((5-methoxypyridin-3-yl)methyl)-4,5,6,7-tetrahydrothieno[2,3-c]pyridine-3-carboxamide], the IC50 [1] is reported as 25 to 50 nM, the Ki [2, 4] is reported as < 25 nM and the Ki [3, 5] is reported as < 25 nM.
In the case of CN(C)Cc1cc(NC(=O)c2csc3c2CCN(Cc2cnc(N)nc2)C3)cc(C(F)(F)F)c1 [Example 55, 6-((2-aminopyrimidin-5-yl)methyl)-N-(3-((dimethylamino)methyl)-5-(trifluoromethyl)phenyl)-4,5,6,7-tetrahydrothieno[2,3-c]pyridine-3-carboxamide], the IC50 [1] is reported as 25 to 50 nM, the Ki [2, 4] is reported as < 25 nM and the Ki [3, 5] is reported as < 25 nM.
CNc1ccc(CN2CCc3c(C(=O)Nc4cc(F)cc(C(F)(F)F)c4)csc3C2)cn1 [Example 48, N-[3-fluoro-5-(trifluoromethyl)phenyl]-6-[[6-(methylamino)-3-pyridyl]methyl]-5,7-dihydro-4H-thieno[2,3-c]pyridine-3-carboxamide] was tested, and the IC50 [1] was < 25 nM, the Ki [2, 4] was < 25 nM and the Ki [3, 5] was < 25 nM.
For Nc1nccnc1CN1CCc2c(C(=O)Nc3cncc(C(F)(F)F)c3)csc2C1 [Example 36, 6-((3-aminopyrazin-2-yl)methyl)-N-(5-(trifluoromethyl)pyridin-3-yl)-4,5,6,7-tetrahydrothieno[2,3-c]pyridine-3-carboxamide], the IC50 [1] was < 25 nM, the Ki [2, 4] was < 25 nM and the Ki [3, 5] was < 25 nM.
With O=C(Nc1cncc(C(F)(F)F)c1)c1csc2c1CCN(Cc1cncc(F)c1)C2 [Example 33, 6-((5-fluoropyridin-3-yl)methyl)-N-(5-(trifluoromethyl)pyridin-3-yl)-4,5,6,7-tetrahydrothieno[2,3-c]pyridine-3-carboxamide] the IC50 [1] was 25 to 50 nM, the Ki [2, 4] was < 25 nM and the Ki [3, 5] was < 25 nM.
CN(C)Cc1cc(NC(=O)c2csc3c2CCN(Cc2cnc(N)nc2)C3)cc(C(F)(F)F)n1 [Example 57, 6-((2-aminopyrimidin-5-yl)methyl)-N-(2-((dimethylamino)methyl)-6-(trifluoromethyl)pyridin-4-yl)-4,5,6,7-tetrahydrothieno[2,3-c]pyridine-3-carboxamide] was tested, and the IC50 [1] was 25 to 50 nM, the Ki [2, 4] was < 25 nM and the Ki [3, 5] was 25 to 50 nM.
With O=C(Nc1cc(F)cc(OC(F)(F)F)c1)c1csc2c1CCN(Cc1cncnc1)C2 [Example 7, N-(3-fluoro-5-(trifluoromethoxy)phenyl)-6-(pyrimidin-5-ylmethyl)-4,5,6,7-tetrahydrothieno[2,3-c]pyridine-3-carboxamide] the IC50 [1] was < 25 nM, the Ki [2, 4] was < 25 nM and the Ki [3, 5] was < 25 nM.
For Cn1nc(C(C)(C)C)cc1NC(=O)c1csc2c1CCN(Cc1nccnc1N)C2 [Example 15, 6-((3-aminopyrazin-2-yl)methyl)-N-(3-(tert-butyl)-1-methyl-1H-pyrazol-5-yl)-4,5,6,7-tetrahydrothieno[2,3-c]pyridine-3-carboxamide], the IC50 [1] was 25 to 50 nM, the Ki [2, 4] was < 25 nM and the Ki [3, 5] was < 25 nM.
For O=C(Nc1cccc(C(F)(F)F)c1)c1csc2c1CCN(Cc1cncc(C(F)(F)F)c1)C2 [Example 23, N-(3-(trifluoromethyl)phenyl)-6-((5-(trifluoromethyl)pyridin-3-yl)methyl)-4,5,6,7-tetrahydrothieno[2,3-c]pyridine-3-carboxamide], the IC50 [1] was 25 to 50 nM, the Ki [2, 4] was < 25 nM and the Ki [3, 5] was < 25 nM.
With O=C(Nc1cccc(C(F)(F)F)c1)c1csc2c1CCN(Cc1cncc(Cl)c1)C2 [Example 20, 6-((5-chloropyridin-3-yl)methyl)-N-(3-(trifluoromethyl)phenyl)-4,5,6,7-tetrahydrothieno[2,3-c]pyridine-3-carboxamide] the IC50 [1] was 25 to 50 nM, the Ki [2, 4] was < 25 nM and the Ki [3, 5] was < 25 nM.
With CN(C)[C@@H]1CCN(Cc2cc(NC(=O)c3csc4c3CCN(Cc3cncnc3C(C)(C)F)C4)cc(C(F)(F)F)c2)C1 [Example 51, (R)-N-(3-((3-(dimethylamino)pyrrolidin-1-yl)methyl)-5-(trifluoromethyl)phenyl)-6-((4-(2-fluoropropan-2-yl)pyrimidin-5-yl)methyl)-4,5,6,7-tetrahydrothieno[2,3-c]pyridine-3-carboxamide] the IC50 [1] was 50 to 80 nM, the Ki [2, 4] was < 25 nM and the Ki [3, 5] was 25 to 50 nM.
With CN(C)[C@@H]1CCN(Cc2cc(NC(=O)c3csc4c3CCN(Cc3cncc(-c5cnn(C)c5)c3)C4)cc(C(F)(F)F)c2)C1 [Example 54, (R)-N-(3-((3-(dimethylamino)pyrrolidin-1-yl)methyl)-5-(trifluoromethyl)phenyl)-6-((5-(1-methyl-1H-pyrazol-4-yl)pyridin-3-yl)methyl)-4,5,6,7-tetrahydrothieno[2,3-c]pyridine-3-carboxamide] the IC50 [1] was 25 to 50 nM, the Ki [2, 4] was < 25 nM and the Ki [3, 5] was < 25 nM.
With O=C(Nc1cccc(C(F)(F)F)c1)c1csc2c1CCN(Cc1cncc(N3CCS(=O)(=O)CC3)c1)C2 [Example 30, 6-((5-(1,1-dioxidothiomorpholino)pyridin-3-yl)methyl)-N-(3-(trifluoromethyl)phenyl)-4,5,6,7-tetrahydrothieno[2,3-c]pyridine-3-carboxamide] the IC50 [1] was 50 to 80 nM, the Ki [2, 4] was < 25 nM and the Ki [3, 5] was < 25 nM.
In the case of Cc1cn(-c2cc(NC(=O)c3cc4c(s3)CN(c3cncnc3)CC4)cc(C(F)(F)F)c2)cn1 [Example C2], the Ki ([2]; read-out: DDR1 Ki) is reported as 29000 nM and the Ki ([3]; read-out: DDR2 Ki) is reported as 50000 nM.
